# In ChEMBL document CHEMBL5579851, “Synthesis and antifungal evaluation of novel triazole derivatives bearing a pyrazole-methoxyl moiety” (Eur J Med Chem, 2024):
# The source made the active and inactive calls. The rule behind the calls is not given here.
# Experiments:
# Candida albicans [1] = test: Antifungal activity against Candida albicans 10231 assessed as inhibition of fungal growth incubated for 48 hrs by CLSI based broth microdilution assay; type: functional
# Cryptococcus neoformans = test: Antifungal activity against Cryptococcus neoformans 32609 assessed as inhibition of fungal growth incubated for 72 hrs by CLSI based broth microdilution assay; type: functional
# Nakaseomyces glabratus [2] = test: Antifungal activity against Candida glabrata 537 assessed as inhibition of fungal growth incubated for 48 hrs by CLSI based broth microdilution assay; type: functional
# Candida parapsilosis [3] = test: Antifungal activity against Candida parapsilosis 22019 assessed as inhibition of fungal growth incubated for 48 hrs by CLSI based broth microdilution assay; type: functional; details: Lodderomyces parapsilosis
# Pichia kudriavzevii = test: Antifungal activity against Candida krusei 4996 assessed as inhibition of fungal growth incubated for 48 hrs by CLSI based broth microdilution assay; type: functional
# Candida tropicalis [4] = test: Antifungal activity against Candida tropicalis 8915 assessed as inhibition of fungal growth incubated for 48 hrs by CLSI based broth microdilution assay; type: functional
# Candida albicans [5] = test: Antifungal activity against fluconazole-resistant Candida albicans 901 assessed as inhibition of fungal growth incubated for 48 hrs by CLSI based broth microdilution assay; type: functional
# [Candida] auris = Antifungal activity against fluconazole-resistant Candida auris 918 assessed as inhibition of fungal growth incubated for 48 hrs by CLSI based broth microdilution assay; type: functional; details: Candidozyma auris
# Saccharomyces cerevisiae [6] = test: Antifungal activity against recombinant Saccharomyces cerevisiae Y525 overexpressing CaMdr1 assessed as inhibition of fungal growth incubated for 48 hrs by CLSI based broth microdilution assay; type: functional
# Saccharomyces cerevisiae [7] = test: Antifungal activity against recombinant Saccharomyces cerevisiae Y570 overexpressing CaCdr1 assessed as inhibition of fungal growth incubated for 48 hrs by CLSI based broth microdilution assay; type: functional
# Saccharomyces cerevisiae [8] = test: Antifungal activity against recombinant Saccharomyces cerevisiae Y2766 overexpressing CauCdr1 assessed as inhibition of fungal growth incubated for 48 hrs by CLSI based broth microdilution assay; type: functional
# Saccharomyces cerevisiae [9] = test: Antifungal activity against recombinant Saccharomyces cerevisiae Y2411 overexpressing ScErg11 assessed as inhibition of fungal growth incubated for 48 hrs by CLSI based broth microdilution assay; type: functional
# Saccharomyces cerevisiae [10] = test: Antifungal activity against recombinant Saccharomyces cerevisiae Y2300 overexpressing ScErg11 assessed as inhibition of fungal growth incubated for 48 hrs by CLSI based broth microdilution assay; type: functional
# Saccharomyces cerevisiae [11] = test: Antifungal activity against recombinant Saccharomyces cerevisiae Y2462 overexpressing ScErg11/ScNcp1 assessed as inhibition of fungal growth incubated for 48 hrs by CLSI based broth microdilution assay; type: functional
# Saccharomyces cerevisiae [12] = test: Antifungal activity against recombinant Saccharomyces cerevisiae Y2459 overexpressing CaErg11/CaCpr assessed as inhibition of fungal growth incubated for 48 hrs by CLSI based broth microdilution assay; type: functional
# Saccharomyces cerevisiae [13] = test: Antifungal activity against recombinant Saccharomyces cerevisiae Y2767 overexpressing CauErg11 assessed as inhibition of fungal growth incubated for 48 hrs by CLSI based broth microdilution assay; type: functional
# Saccharomyces cerevisiae [14] = test: Antifungal activity against recombinant Saccharomyces cerevisiae Y2301 overexpressing ScErg11 Y140F mutant assessed as inhibition of fungal growth incubated for 48 hrs by CLSI based broth microdilution assay; type: functional
# Saccharomyces cerevisiae [15] = test: Antifungal activity against recombinant Saccharomyces cerevisiae Y2513 overexpressing ScErg11 Y140H mutant assessed as inhibition of fungal growth incubated for 48 hrs by CLSI based broth microdilution assay; type: functional
# Saccharomyces cerevisiae [16] = test: Antifungal activity against recombinant Saccharomyces cerevisiae Y2716 overexpressing CpErg11 Y132F mutant/ CpCpr assessed as inhibition of fungal growth incubated for 48 hrs by CLSI based broth microdilution assay; type: functional
# Saccharomyces cerevisiae [17] = test: Antifungal activity against recombinant Saccharomyces cerevisiae Y2769 overexpressing CauErg11 K143R mutant assessed as inhibition of fungal growth incubated for 48 hrs by CLSI based broth microdilution assay; type: functional
# Candida tropicalis [18] = test: Potency index, ratio of fluconazole MIC to test compound MIC for antifungal activity against Candida tropicalis 8915 assessed as inhibition of fungal growth incubated for 48 hrs by CLSI based broth microdilution assay; type: functional
# Saccharomyces cerevisiae [19] = test: Selectivity index, ratio of MIC for antifungal activity against recombinant Saccharomyces cerevisiae Y525 overexpressing CaMdr1 to MIC for antifungal activity against recombinant Saccharomyces cerevisiae Y2411 overexpressing ScErg11; type: functional
# Candida albicans [20] = test: Antifungal activity against Candida albicans SC5314 assessed as inhibition of fungal growth at 0.125 ug/ml after 48 hrs by TECAN plate reader analysis relative to control; type: functional
# Candida parapsilosis [21] = test: Antifungal activity against Candida parapsilosis 22019 assessed as inhibition of fungal growth at 0.125 ug/ml measured up to 48 hrs by TECAN plate reader analysis; type: functional, organism-based; details: dose 0.125 µg/ml
# Nakaseomyces glabratus [22] = test: Antifungal activity against Candida glabrata 537 assessed as inhibition of fungal growth at 2 ug/ml measured up to 48 hrs by TECAN plate reader analysis; type: functional, organism-based; details: dose 2.0 µg/ml
# Candida albicans [23] = test: Antifungal activity against Candida albicans SC5314 assessed as inhibition of hyphae length after 3 hrs by inverted microscopic analysis; type: functional, organism-based; details: dose 0.0625-1 µg/ml
# Candida albicans [24] = test: Antifungal activity against Candida albicans SC5314 assessed as inhibition of hyphae formation at 0.625 ug/ml after 3 hrs by inverted microscopic analysis relative to control; type: functional
# Candida albicans [25] = test: Antibiofilm activity against Candida albicans SC5314 assessed as inhibition of biofilm formation at 64 ug/mL incubated for 24 hrs by XTT assay relative to control; type: functional
# Candida albicans [26] = test: Antibiofilm activity against Candida albicans SC5314 assessed as increase in matured biofilm distruption incubated for 24 hrs by XTT assay; type: functional, organism-based; details: dose 0.25-64 µg/ml
# Candida albicans [27] = test: Antibiofilm activity against Candida albicans SC5314 assessed as increase in matured biofilm distruption at 64 ug/ml incubated for 24 hrs by XTT assay relative to control; type: functional; details: dose 64 µg/ml
# [28] = target: T1, Lanosterol 14-alpha demethylase (Candida albicans (strain SC5314 / ATCC MYA-2876) (Yeast), UniProt P10613); test: Inhibition of CYP51 in Candida albicans SC5314 assessed as ergosterol level at 0.0625 ug/ml after 8 hrs by GC-MS analysis (reference value: 86.2 %); parameters: scale not given: the % may be the effect or the level left; details: at 0.0625 µg/mL
# [29] = target: T1, Lanosterol 14-alpha demethylase; test: Inhibition of CYP51 in Candida albicans SC5314 assessed as lanosterol level at 0.0625 ug/ml after 8 hrs by GC-MS analysis (reference value: 5.9 %); parameters: scale not given: the % may be the effect or the level left; details: at 0.0625 µg/mL
# [30] = target: T1, Lanosterol 14-alpha demethylase; test: Inhibition of CYP51 in Candida albicans SC5314 assessed as eburicol level at 0.0625 ug/ml after 8 hrs by GC-MS analysis relative to control; parameters: scale not given: the % may be the effect or the level left; details: at 0.0625 µg/mL
# [31] = target: T1, Lanosterol 14-alpha demethylase; test: Inhibition of CYP51 in Candida albicans SC5314 assessed as obtusifoliol level at 0.0625 ug/ml after 8 hrs by GC-MS analysis relative to control; parameters: scale not given: the % may be the effect or the level left; details: at 0.0625 µg/mL
# Cell membrane = test: Induction of membrane permeabilization in Candida albicans SC5314 assessed as increase in fluorescence at 0.0625 to 0.5 ug/ml incubated for 8 hrs by propidium iodide staining based fluorescence microscopic analysis; details: dose 0.0625-0.5 µg/ml
# [32] = Cytotoxicity against HUVEC cells assessed as cell viability at 128 ug/ml incubated for 24 hrs by CCK-8 assay relative to control; type: toxicity, cell-based; details: human, at 128 µg/mL, read-out: Activity
# T1 sequence (P10613 whole entry): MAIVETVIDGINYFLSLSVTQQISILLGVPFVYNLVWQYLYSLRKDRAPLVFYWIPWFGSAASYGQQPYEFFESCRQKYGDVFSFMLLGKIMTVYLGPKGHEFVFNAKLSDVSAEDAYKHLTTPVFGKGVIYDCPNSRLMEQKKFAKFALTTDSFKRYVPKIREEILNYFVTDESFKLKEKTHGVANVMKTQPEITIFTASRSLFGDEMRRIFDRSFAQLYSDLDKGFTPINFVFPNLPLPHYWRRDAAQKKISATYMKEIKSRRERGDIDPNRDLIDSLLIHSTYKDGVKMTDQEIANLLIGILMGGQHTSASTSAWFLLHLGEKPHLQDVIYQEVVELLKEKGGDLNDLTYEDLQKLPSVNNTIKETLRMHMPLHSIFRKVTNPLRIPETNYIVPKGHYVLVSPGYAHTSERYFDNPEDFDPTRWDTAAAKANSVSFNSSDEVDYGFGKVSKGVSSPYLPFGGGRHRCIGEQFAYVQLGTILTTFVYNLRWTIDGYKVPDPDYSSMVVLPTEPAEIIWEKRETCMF
smiles,measurement,setting,value
C[C@@H](OCc1ccn(Cc2ccc(Cl)cc2)n1)[C@](O)(Cn1cncn1)c1ccc(F)cc1F,MIC,Candida albicans [1],≤ 0.125 µg/mL
same,MIC,Cryptococcus neoformans,≤ 0.125 µg/mL
same,MIC,Nakaseomyces glabratus [2],≤ 0.125 µg/mL
same,MIC,Candida parapsilosis [3],0.25 µg/mL
same,MIC,Pichia kudriavzevii,2 µg/mL
same,MIC,Candida tropicalis [4],0.25 µg/mL
same,MIC,Candida albicans [5],16 µg/mL
same,MIC,[Candida] auris,8 µg/mL
same,MIC,Saccharomyces cerevisiae [6],0.125 µg/mL
same,MIC,Saccharomyces cerevisiae [7],16 µg/mL
same,MIC,Saccharomyces cerevisiae [8],2 µg/mL
same,MIC,Saccharomyces cerevisiae [9],0.008 µg/mL
same,MIC,Saccharomyces cerevisiae [10],0.0313 µg/mL
same,MIC,Saccharomyces cerevisiae [11],0.0313 µg/mL
same,MIC,Saccharomyces cerevisiae [12],0.008 µg/mL
same,MIC,Saccharomyces cerevisiae [13],0.008 µg/mL
same,MIC,Saccharomyces cerevisiae [14],0.008 µg/mL
same,MIC,Saccharomyces cerevisiae [15],0.008 µg/mL
same,MIC,Saccharomyces cerevisiae [16],0.016 µg/mL
same,MIC,Saccharomyces cerevisiae [17],0.008 µg/mL
same,Ratio,Candida tropicalis [18],256
same,Ratio,Saccharomyces cerevisiae [19],16
same,inhibition at 0.125 µg/mL,Candida albicans [20],100%
same,inhibition,Candida parapsilosis [21],Active
same,inhibition,Nakaseomyces glabratus [22],inactive
same,inhibition,Candida albicans [23],Dose-Dependent Effect
same,inhibition at 0.625 µg/mL,Candida albicans [24],100%
same,inhibition at 64 µg/mL,Candida albicans [25],> 55%
same,Activity,Candida albicans [26],Dose-Dependent Effect
same,Activity,Candida albicans [27],57.3%
same,Activity,[28],0%
same,Activity,[29],> 25%
same,Activity,[30],~ 20%
same,Activity,[31],~ 20%
same,Activity,Cell membrane,Active
same,"viability at 24 h, 128 ug/ml",[32],64.5%
